# According to patent US10265286B2, “Sequelae of cardiopulmonary bypass-induced pulmonary injury” (Vanderbilt University, priority 2016, dated 2019):
# Assays:
# [1] = Phase IB study: length of time on inotropes and inotrope score; format: in vivo, human
# Source text: The inotrope dose should be monitored post operatively from the time of PCCU admission using the following scoring system:
# • =total inotrope score See, e.g., Hoffman, et al. Circulation (2003) 107: 996-1002. A decrease in the inotrope score would be a positive postoperative outcome.
# In FIG. 21, data are defined as the time between the start and end times of inotrope use. All missing or 0 total inotrope scores prior to the first measured score are set to 0 and are therefore not considered as being on inotropes. The total inotrope score is considered, which is calculated on the basis of Dopamine, Dobutamine, Milrinone, Epinephrine, Phenylephrine, and Norepinephrine. The length of time on inotropes of patients with no use of inotropes is set to 0 hours (not censored).
# The length of time on IV inotropes was documented from the time of first use after surgery until completion of the study medication at 48 hours, i.e. the duration of inotrope use was maximally 48 hours in the current analysis. Patients still receiving inotropes at hour 48 after surgery were censored. The average duration of intravenous (IV) inotrope use was clearly lower in the citrulline group than in the placebo group (Table 12). However, statistical significance for the between-treatment difference was not reached.
# [2] = Perioperative oral citrulline supplementation in children undergoing congenital cardiac surgery; format: in vivo, human
# Protocol: Initial supplementation trials utilized oral citrulline at a dose of 1.9 g/kg before cardiopulmonary bypass, immediately postoperatively and every 12 hours, continuing for 48 hours after surgery.
# 40 patients with one of the 5 surgical diagnoses identified above were randomized to receive 5 doses of oral citrulline (1.9 grams/kg) vs. placebo. The first dose was administered immediately prior to surgery and the second dose immediately on arrival in the Pediatric ICU after surgery followed every 12 hours×3 doses.
# [3] = all i.v. inotropes postoperatively
compound,measurement,setting,value
"NC(=O)NCCCC(N)C(=O)O (stereo not shown) [Citrulline, 2-amino-5-(carbamoylamino)pentanoic acid]","Total inotrope score, Diff (CI) placebo vs citrulline",[1]; [3],"559.8 (−193.5, 1313.2)"
same,"Total inotrope score, Median",[1]; [3],650.0
same,"Total inotrope score, Range",[1]; [3],0.0-2351.0
same,"Total inotrope score, Mean ± SD","[1]; all i.v. inotropes postoperatively, N = 11",602.7 ± 727.86
same,"Length of time on i.v. inotropes, Diff (CI) placebo vs citrulline",[1]; maximally 48 hours,"12.7 (−2.6, 28.1) hours"
same,"Length of time on i.v. inotropes, Median",[1]; maximally 48 hours,16.0 h
same,"Length of time on i.v. inotropes, Range",[1]; maximally 48 hours,0.0 to 47.0 h
same,"Length of time on i.v. inotropes, Mean ± SD","[1]; maximally 48 hours, N = 11",13.4 ± 14.78 h
same,Plasma citrulline levels,"[2]; 5 doses of oral citrulline 1.9 grams/kg, placebo 26",36 µmol/L
same,tolerability,"[2]; oral 1.9 g/kg before CPB, postoperatively and every 12 hours for 48 hours",well tolerated with no evidence of significant adverse events
